PubChem BioAssay AID1645865 (Buhrlage Lab, Dana-Farber Cancer Institute and Novartis …, 2021)
The source made the active and inactive calls.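 Rule for the calls: active = maximal inhibition of the USP30 enzyme reaching 30% or more across the dose series; inactive = the rest.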

target: Ubiquitin carboxyl-terminal hydrolase 30 (Homo sapiens) (UniProt Q70CQ3); assay: ubiquitin-specific protease 30 DUB inhibitors, concentration-effect, biochemical, validation of primary actives (AID 1645865); conditions: purified USP30, Ub-rhodamine cleavage, fluorescence, 2 h
Sequence (Q70CQ3 whole entry, looked up): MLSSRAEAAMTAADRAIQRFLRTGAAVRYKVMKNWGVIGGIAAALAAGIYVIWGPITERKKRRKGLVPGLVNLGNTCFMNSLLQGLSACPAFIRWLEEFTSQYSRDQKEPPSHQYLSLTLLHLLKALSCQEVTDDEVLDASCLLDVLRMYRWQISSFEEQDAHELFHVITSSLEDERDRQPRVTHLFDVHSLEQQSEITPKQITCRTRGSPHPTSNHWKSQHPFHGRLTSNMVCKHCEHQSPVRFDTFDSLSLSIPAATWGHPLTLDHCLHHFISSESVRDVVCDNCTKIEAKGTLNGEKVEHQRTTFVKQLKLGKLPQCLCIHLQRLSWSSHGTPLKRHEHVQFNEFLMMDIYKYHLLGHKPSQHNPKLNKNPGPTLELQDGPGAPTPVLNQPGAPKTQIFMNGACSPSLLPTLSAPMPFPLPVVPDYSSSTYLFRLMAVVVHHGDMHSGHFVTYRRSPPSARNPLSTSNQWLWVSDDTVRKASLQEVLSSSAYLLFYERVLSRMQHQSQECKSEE

Compound | IC50
Cc1nn(-c2cc(N3CCOCC3)ncn2)c(C)c1CCC(=O)Nc1ccc(C(C)C)cc1 | 34.9 µM
CSc1cccc(NC(=O)COc2cccc3ccccc23)c1 | 1.46 µM
Cc1nc2ccccn2c1C1(O)C(=O)Nc2c(Cl)cc(Cl)cc21 (stereo not drawn) | > 50 µM (inactive)
O=C1CN(C(=O)COC(=O)CCCN2C(=O)c3cccc4cccc(c34)C2=O)c2ccccc2N1 | > 50 µM (inactive)
CC(=O)c1ccc(NC(=O)c2nc3ccccc3nc2N2CCOCC2)cc1 | > 50 µM (inactive)
O=C(Nc1ccccc1Br)c1ccn(COc2ccccc2F)n1 | 14.8 µM
O=S(=O)(O)c1cc2cc3ccccc3cc2[nH]1 | > 50 µM (inactive)
COc1ccc(C(=O)Nc2cc(F)c3nc(N4CCOCC4)ccc3c2)c(OC)c1 | > 50 µM (inactive)
CN(C)Cc1ccc(C(=O)Nc2ccc(-c3nccs3)cc2)cc1 | > 50 µM (inactive)
Cc1ccc(C)c(-n2c(N)c(C(=O)NCCc3ccccc3)c3nc4ccccc4nc32)c1 | > 50 µM (inactive)
Fc1cccc(Cn2cc(-c3noc(-c4cccnc4)n3)nn2)c1 | 26.4 µM
Cc1ccc(-c2nnc(-n3ncc(C#N)c3N)c3ccccc23)cc1C | > 50 µM (inactive)
O=C(Nc1ccc(Oc2cccc3cccnc23)cc1)c1cccs1 | > 50 µM (inactive)
CCc1ccc2c(c1)[C@]1(C(=O)N2)[C@@H]2C(=O)N(c3ccc(Cl)cc3Cl)C(=O)[C@@H]2[C@@H]2CCCN21 | > 50 µM (inactive)
CC(c1ccccc1)c1nc(-c2ccc(=O)[nH]c2)no1 (stereo not drawn) | > 50 µM (inactive)
CCOc1ccc(-c2nc(C#N)c(N3CCN(C(=O)c4ccccc4C)CC3)o2)cc1 | 2.62 µM
FC(F)(F)c1ccccc1CCN1CCc2nc3ccc(Cl)cc3cc2C1 | > 50 µM (inactive)
COc1ccc2c(c1)c(N1CCCC1=O)c(C(=O)NCc1cccc(OC)c1OC)n2C | > 50 µM (inactive)
CN1C(=O)c2cc(NC(=O)c3ccccc3Cl)ccc2Oc2ccccc21 | > 50 µM (inactive)
O=C(Cn1c(=O)nc(-c2ccccc2)c2ccccc21)NCc1ccc2c(c1)OCO2 | 26.2 µM
COc1ccc(-c2cc(C(=O)N3CCN(c4ccc([N+](=O)[O-])cc4)CC3)[nH]n2)cc1 | > 50 µM (inactive)
Cc1cnc2nc3c(cc2c1)CN(S(=O)(=O)c1cc(F)ccc1C)CC3 | > 50 µM (inactive)
COc1ccc(NC(=O)c2cc(-c3cccnc3)n[nH]2)cc1Cl | 1.16 µM
Cc1ccc(C(=O)NCCc2nc(-c3ccc4c(c3)OCO4)n[nH]2)cc1F | 41.6 µM

Compound | IC50
CC(C)NS(=O)(=O)c1cccc2c(NC(=O)C(Cc3ccccc3)NC(=O)c3ccccc3)cccc12 (stereo not drawn) | < 0.05 µM
CCc1cccc(CC)c1NC(=O)COC(=O)c1cc2cccc(OC)c2oc1=O | 39.5 µM
CC(C)CC(=O)Nc1cc(F)c2nc(N3CCOCC3)ccc2c1 | > 50 µM (inactive)
O=C(/C=C/c1ccc(F)cc1)N1CCC(Cc2ccccc2)CC1 | 41.9 µM
Cc1cccc(O)c1-c1nc2c(-c3nc4c(C(=O)O)cccc4o3)cccc2o1 | > 50 µM (inactive)
Cc1cccc(NC(=O)Cn2cnc(-c3noc(-c4ccccc4)n3)c2)c1C | 1.24 µM
COc1ccc(-n2nnc(C(=O)Nc3ccccc3)c2N)cc1 | > 50 µM (inactive)
CC(=O)Nc1ccc(-n2cnc(C(=O)NC(C)c3ccccc3)c2)nc1 (stereo not drawn) | 25.8 µM
COc1cccc2sc(N3CCN(c4nc5ccccc5s4)CC3)nc12 | 39.3 µM
Cc1cc(C)nc(SCCn2c(N3CCC(Cc4ccccc4)CC3)nc3c2c(=O)n(C)c(=O)n3C)n1 | 46.9 µM
COC(=O)C1C(c2ccc(Cl)cc2Cl)C2(C(=O)c3ccccc3C2=O)C2C=Cc3ccccc3N12 (stereo not drawn) | > 50 µM (inactive)
CCc1noc(-c2ccc(OCC(=O)Nc3ccc(C)cc3C)cc2)n1 | 29 µM
CSc1ccc(CNCc2c(C(=O)O)n(Cc3ccccc3)c3cc(C)ccc23)cc1 | > 50 µM (inactive)
CCN(CC)c1nc(F)c2c(c1F)S(=O)(=O)CCN2Cc1ccccc1 | > 50 µM (inactive)
Cc1c(C)n(-c2ccc(Br)cn2)c2ncnc(NCCCO)c12 | 25.4 µM
Cc1ccc(C)c(NC(=O)CCc2nc(CSc3nc4ccccc4o3)no2)c1 | 23.8 µM
O=C(Nc1nc2c(s1)COCC2)c1cc(-c2ccco2)[nH]n1 | > 50 µM (inactive)
COc1ccc2cc1Oc1cc(ccc1OC)C(O)C13SSC4(C(=O)N1C)C(O)C1=COC=CC(OC2=O)C1N4C3=O (stereo not drawn) | 0.674 µM
CO[C@H]1[C@@H](O)[C@H](C)O[C@H](O[C@H]2[C@H](Oc3cccc4c(O)c5c(=O)oc6ccc(C)c7c(=O)oc(c34)c5c67)O[C@H](C)[C@H](O)[C@@H]2O)[C@@H]1O | > 50 µM (inactive)
O=C(Nc1cccc(Cl)c1)N1CCN(c2cc(C(F)(F)F)ccn2)CC1 | 8.77 µM
CCOc1ccccc1NC(=O)COc1cc(OC)ccc1C(=O)c1ccccc1 | > 50 µM (inactive)
COCCNC(=O)Cn1c(=O)n(Cc2ccccc2)c(=O)c2c3c(sc21)CCC3 | 31.7 µM
Nc1ccccc1SCc1noc(-c2cccs2)n1 | > 50 µM (inactive)
NS(=O)(=O)c1cccc(NC(=O)CN2CCCc3ccccc32)c1 | > 50 µM (inactive)
